ChEMBL document CHEMBL1201862, “PubChem BioAssay data set” (2004)
The source made the active and inactive calls.

How the values were obtained:
[1] = target: T1, Oxysterols receptor LXR-beta (Homo sapiens, UniProt P55055); experiment: LXR agonists, Gal4 luciferase reporter, dose response, counter-screen for ssDAF-12 agonist project, cell-based, luminescence, HEK293, S. stercoralis campaign (AID 720737); type: functional; details: read-out: IC50 (the source's name)
T1 sequence (P55055 whole entry): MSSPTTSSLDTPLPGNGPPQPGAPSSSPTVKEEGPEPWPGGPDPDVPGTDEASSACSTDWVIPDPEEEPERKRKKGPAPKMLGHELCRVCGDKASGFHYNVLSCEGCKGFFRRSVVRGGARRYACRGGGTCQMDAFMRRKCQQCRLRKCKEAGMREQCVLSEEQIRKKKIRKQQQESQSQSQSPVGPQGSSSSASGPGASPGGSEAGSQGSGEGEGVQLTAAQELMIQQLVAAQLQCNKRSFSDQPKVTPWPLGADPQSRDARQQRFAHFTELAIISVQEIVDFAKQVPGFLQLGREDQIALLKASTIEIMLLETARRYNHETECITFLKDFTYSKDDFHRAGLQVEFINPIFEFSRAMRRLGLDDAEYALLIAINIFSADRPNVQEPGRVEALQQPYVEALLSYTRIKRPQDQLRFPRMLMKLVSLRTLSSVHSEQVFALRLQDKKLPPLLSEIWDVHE

[2] = Luminescence-based cell-based high throughput dose response assay to identify activators of the DAF-12 from the parasite S. stercoralis (ssDAF-12).; type: functional
[3] = viability loss in human Jurkat cells – cell-based, luminescence, cytotoxicity control for P. falciparum gametocyte viability project, dose response (AID 1117277); type: functional;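 also: potency reflects loss of cellular ATP meaning fewer viable cells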
[4] = viability inhibitors of stage V gametocytes – luminescence, dose response (AID 1117278); type: functional, cell-based;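 also: gametocytes exposed to compound for 24 hours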
[5] = growth inhibition of PfATP4-mutant resistant parasites – NITD609-resistant line, SYBR Green, dry powder, dose response (AID 1159571); type: functional, cell-based;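 also: parasites synchronized at ring stage by sorbitol before testing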
[6] = IGROV1 cell killing – plate reader, dry powder samples, PAX8 inhibitor project, dose response (AID 743043); type: functional, cell-based; details: IGROV-1
Paired box protein Pax-8 = Paired box protein Pax-8 (Homo sapiens, UniProt Q06710); experiment: PAX8 transcriptional activity inhibition in RMG-I – RMG-I cells, luciferase, cherry-pick, dose response (AID 687027); type: functional, cell-based;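 also: luciferase reporter driven by Pax8 target thyroperoxidase promoter measured by SteadyGlo luminescence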
[7] = A2780 cell killing – plate reader, dry powder samples, cytotoxicity control, dose response (AID 743046); type: functional, cell-based
[8] = growth inhibition of yeast DHODH-expressing 3D7 parasites – SYBR Green, dry powder samples, dose response (AID 1159570); type: functional, cell-based;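 also: parasite growth measured after 72 hours of compound exposure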
[9] = P. falciparum Dd2 growth inhibitors, dose response, SYBR Green, cherry-picked samples (AID 1159567); type: functional, cell-based
[10] = toxicity to human HepG2 hepatoma cells – cell-based, plate reader, dry powder samples, cytotoxicity control, dose response (AID 1159569); type: functional;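 also: inhibitor potency with signal falling toward the positive control level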
[11] = OVCAR8 cell viability loss – plate reader, dry powder samples, PAX8 project, dose response (AID 743197); type: functional, cell-based; details: OVCAR-8
[12] = OVCAR-3 cell viability loss – plate reader, dry powder samples, PAX8 inhibitor project, dose response (AID 743044); type: functional, cell-based
[13] = Dd2 malaria parasite growth inhibition potency – SYBR Green, dry powder samples, dose response (AID 1159566); type: functional, cell-based;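 also: potency for growth inhibition with lower SYBR green DNA signal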
[14] = viability loss in CEM21 cells – cell-based, CellTiter-Glo luminescence, cherry-picked, cytotoxicity control for viral fusion inhibitor project, dose response (AID 652042); type: functional;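 also: potency for signal decrease meaning cytotoxicity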
[15] = blockers of HIV-1 ZM109 envelope-driven cell-cell fusion – HeLa effector, CEM target cells, luciferase, cherry-pick, dose response (AID 652058); type: functional, cell-based;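 also: luciferase signal from HIV-1 Env mediated cell-cell fusion of effector and target cells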
[16] = blockers of HIV-1 envelope-mediated cell-cell fusion – cherry-pick, dose response (AID 652057); type: functional, cell-based
[17] = HIV-1 AD8 envelope cell-cell fusion blockers – cherry-pick, dose response (AID 652062); type: functional, cell-based;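 also: luciferase signal from cell-cell fusion driven by HIV-1 clade B AD8 Env; potency is for inhibitors of fusion seen as a drop in luminescence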
[18] = target: Disintegrin and metalloproteinase domain-containing protein 17 (Homo sapiens, UniProt P78536); experiment: exosite inhibitors of ADAM17, dose response, biochemical (AID 743260)
[19] = NIH3T3 cell viability loss – ATP luminescence, mouse fibroblasts, counter-screen, dose response (AID 2010); type: functional, cell-based;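 also: cells exposed to compound for about 90 hours before reading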
[20] = inhibition of ADAM10 peptide cleavage – biochemical, FRET peptide substrate, recombinant human ADAM10, selectivity assay for ADAM17 exosite inhibitor project, dose response (AID 743259);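 also: ADAM10 enzyme cleaving a FRET peptide substrate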
[21] = Trypanosoma cruzi growth suppression in host cells – NIH3T3 host cells, beta-gal luminescence, confirmation (AID 2044); type: functional, cell-based;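 also: intracellular parasites grown in NIH/3T3 mouse fibroblasts as host cells; luminescent beta-galactosidase reporter signal from transgenic T. cruzi replicating inside host cells; inhibitors lower the luminescence signal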
[22] = target: Mitogen-activated protein kinase 10 (Homo sapiens, UniProt P53779); experiment: Dose response biochemical screening assay for inhibitors of c-Jun N-Terminal Kinase 3 (JNK3). [Related pubchem assays: 746 ]
[23] = target: FAD-linked sulfhydryl oxidase ALR (Homo sapiens, UniProt P55789); experiment: ALR-catalysed DTT oxidation blockers – biochemical, H2O2 detection, luminescence, cherry-pick, dose response (AID 493248)
INS1 = experiment: INS-1E survival protection against cytokine death – cell-based, luminescence, retest, dose response (AID 449756); type: functional; details: Rattus norvegicus;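 also: cell death triggered by IL-1 beta plus TNF-alpha plus IFN-gamma mixture; protective hits raise ATP signal compared with cytokine alone wells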
[24] = off-target signal loss in HeLa-CEM21 co-culture – HeLa F-luc CTL cells, cherry-picked, counter-screen for HIV-1 Env fusion inhibitor project, dose response (AID 652040); type: functional, cell-based;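 also: potency for signal decrease marking cytotoxic or nonspecific inhibition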
[25] = microbe, parasite or virus in culture; type: functional; details: Mycobacterium tuberculosis
[26] = Counterscreen for inhibitors of Trypanosoma brucei methionyl tRNA synthetase (MetRS): Luminescence-based cell-based high throughput dose response assay to identify compounds that are cytotoxic to Jurkat human T lymphocyte cells.; type: functional
Streptococcus = experiment: GAS UMAA2166 growth inhibition – luminescence, BacTiterGlo, counter-screen for streptokinase expression inhibitor project, dose response (AID 1915); type: functional, organism-based;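 also: potency for reduction of bacterial viability or growth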
[27] = target: T2, Methionyl-tRNA synthetase, putative (Trypanosoma brucei brucei, UniProt Q38C91); type: functional, Trypanosoma brucei brucei strain 927/4 GUTat10.1
T2 sequence (Q38C91 whole entry): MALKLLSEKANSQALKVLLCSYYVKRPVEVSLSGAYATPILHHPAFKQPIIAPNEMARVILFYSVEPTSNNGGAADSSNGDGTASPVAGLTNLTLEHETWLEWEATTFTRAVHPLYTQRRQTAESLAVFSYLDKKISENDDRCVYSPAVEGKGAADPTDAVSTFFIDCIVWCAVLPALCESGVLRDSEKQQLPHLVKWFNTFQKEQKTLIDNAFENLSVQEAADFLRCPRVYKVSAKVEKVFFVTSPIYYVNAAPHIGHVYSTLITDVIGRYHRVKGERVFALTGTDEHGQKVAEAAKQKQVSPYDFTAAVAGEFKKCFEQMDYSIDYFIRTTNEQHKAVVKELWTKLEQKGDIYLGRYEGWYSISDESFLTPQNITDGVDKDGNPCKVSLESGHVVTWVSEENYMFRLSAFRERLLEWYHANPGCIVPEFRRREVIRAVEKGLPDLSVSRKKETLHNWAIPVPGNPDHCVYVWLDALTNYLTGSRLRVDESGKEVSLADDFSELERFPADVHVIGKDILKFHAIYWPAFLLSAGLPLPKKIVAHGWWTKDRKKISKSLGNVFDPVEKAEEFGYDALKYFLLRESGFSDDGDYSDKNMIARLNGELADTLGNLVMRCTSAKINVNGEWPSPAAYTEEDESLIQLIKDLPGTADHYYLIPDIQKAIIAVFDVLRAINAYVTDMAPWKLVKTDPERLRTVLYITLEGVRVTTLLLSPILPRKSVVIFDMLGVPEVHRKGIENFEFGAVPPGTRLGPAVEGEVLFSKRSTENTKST

Streptokinase A = target: T3, Streptokinase A (Streptococcus pyogenes serotype M1, UniProt P10520); experiment: viability-normalized secreted streptokinase activity reduction – plasminogen activation absorbance, OD405, dose response (AID 1914); type: functional, Streptococcus pyogenes M1 GAS;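 also: secreted streptokinase activity via plasminogen activation per viability signal from cell pellet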
T3 sequence (P10520 whole entry): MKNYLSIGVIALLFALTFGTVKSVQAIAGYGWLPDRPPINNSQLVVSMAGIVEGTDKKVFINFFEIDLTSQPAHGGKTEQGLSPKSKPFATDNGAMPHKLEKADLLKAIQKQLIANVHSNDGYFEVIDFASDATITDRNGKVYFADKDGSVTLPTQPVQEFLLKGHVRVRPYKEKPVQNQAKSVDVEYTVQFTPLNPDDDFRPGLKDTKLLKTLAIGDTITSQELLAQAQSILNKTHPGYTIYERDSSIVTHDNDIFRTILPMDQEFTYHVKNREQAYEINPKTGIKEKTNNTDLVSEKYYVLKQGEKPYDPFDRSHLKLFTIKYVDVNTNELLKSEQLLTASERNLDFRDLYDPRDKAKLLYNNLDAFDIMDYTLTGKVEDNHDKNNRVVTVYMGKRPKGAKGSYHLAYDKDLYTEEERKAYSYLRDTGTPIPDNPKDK

[28] = viability of uninfected HEp-2 cells – cell-based, HTS, cytotoxicity control for RSV inhibitor project, dose response (AID 2410); type: functional; details: human respiratory syncytial virus
[29] = target: T2, Methionyl-tRNA synthetase, putative; type: functional, Trypanosoma brucei brucei strain 927/4 GUTat10.1; remark: listed apart in the source
[30] = system: Streptococcus sp. 'group A'; experiment: Streptococcus pyogenes SK(-)GAS viability under kanamycin – luminescence, BacTiterGlo, confirmation, counter-screen for streptokinase expression inhibitor project, dose response (AID 1900); type: functional, organism-based

Sequence of Disintegrin and metalloproteinase domain-containing protein 17 (P78536 whole entry, the tested form may be a part): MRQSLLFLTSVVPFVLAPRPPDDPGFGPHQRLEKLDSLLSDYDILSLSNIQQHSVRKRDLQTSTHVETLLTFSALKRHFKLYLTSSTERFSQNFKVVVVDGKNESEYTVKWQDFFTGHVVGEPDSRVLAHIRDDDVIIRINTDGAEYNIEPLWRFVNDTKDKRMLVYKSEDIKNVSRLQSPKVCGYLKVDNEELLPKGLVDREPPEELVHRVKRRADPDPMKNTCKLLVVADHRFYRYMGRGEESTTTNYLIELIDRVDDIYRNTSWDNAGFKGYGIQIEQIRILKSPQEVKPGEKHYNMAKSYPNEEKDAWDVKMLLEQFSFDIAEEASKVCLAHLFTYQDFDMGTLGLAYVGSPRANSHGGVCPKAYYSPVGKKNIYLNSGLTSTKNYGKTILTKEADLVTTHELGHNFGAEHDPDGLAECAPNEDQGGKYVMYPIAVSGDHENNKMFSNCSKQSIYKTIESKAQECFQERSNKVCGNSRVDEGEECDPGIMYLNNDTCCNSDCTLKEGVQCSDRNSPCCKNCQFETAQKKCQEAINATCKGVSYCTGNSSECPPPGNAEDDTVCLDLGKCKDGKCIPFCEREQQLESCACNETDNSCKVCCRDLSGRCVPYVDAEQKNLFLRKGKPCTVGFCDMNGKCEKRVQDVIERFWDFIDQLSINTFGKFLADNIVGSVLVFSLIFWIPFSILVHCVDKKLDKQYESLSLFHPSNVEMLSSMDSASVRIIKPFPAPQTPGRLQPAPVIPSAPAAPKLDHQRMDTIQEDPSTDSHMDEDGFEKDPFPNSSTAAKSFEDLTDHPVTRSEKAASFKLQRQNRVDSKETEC
Sequence of Mitogen-activated protein kinase 10 (P53779 whole entry): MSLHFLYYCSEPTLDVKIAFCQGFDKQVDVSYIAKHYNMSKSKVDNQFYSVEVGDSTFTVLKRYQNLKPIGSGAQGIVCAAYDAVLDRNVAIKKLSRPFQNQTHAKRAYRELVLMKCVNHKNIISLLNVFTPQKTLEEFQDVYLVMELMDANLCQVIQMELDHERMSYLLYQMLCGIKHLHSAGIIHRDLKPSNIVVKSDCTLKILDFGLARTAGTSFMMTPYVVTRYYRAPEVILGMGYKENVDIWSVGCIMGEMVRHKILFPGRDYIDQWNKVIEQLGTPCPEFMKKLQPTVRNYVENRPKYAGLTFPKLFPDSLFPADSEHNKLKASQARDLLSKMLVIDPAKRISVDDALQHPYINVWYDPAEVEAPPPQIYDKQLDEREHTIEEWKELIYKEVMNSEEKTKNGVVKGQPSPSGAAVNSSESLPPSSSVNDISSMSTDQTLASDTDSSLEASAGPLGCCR
Sequence of Paired box protein Pax-8 (Q06710 whole entry): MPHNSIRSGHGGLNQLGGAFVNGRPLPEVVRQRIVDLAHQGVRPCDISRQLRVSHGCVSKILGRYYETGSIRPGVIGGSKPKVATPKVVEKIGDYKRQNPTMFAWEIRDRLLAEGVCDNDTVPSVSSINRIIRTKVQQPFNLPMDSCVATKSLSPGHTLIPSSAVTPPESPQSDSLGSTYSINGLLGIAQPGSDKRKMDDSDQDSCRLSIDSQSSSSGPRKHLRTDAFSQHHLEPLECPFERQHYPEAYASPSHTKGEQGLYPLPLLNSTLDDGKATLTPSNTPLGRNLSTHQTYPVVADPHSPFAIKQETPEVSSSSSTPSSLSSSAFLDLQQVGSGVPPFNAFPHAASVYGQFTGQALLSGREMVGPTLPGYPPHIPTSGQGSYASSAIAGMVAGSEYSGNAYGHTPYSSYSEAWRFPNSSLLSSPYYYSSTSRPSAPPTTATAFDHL
Sequence of FAD-linked sulfhydryl oxidase ALR (P55789 whole entry): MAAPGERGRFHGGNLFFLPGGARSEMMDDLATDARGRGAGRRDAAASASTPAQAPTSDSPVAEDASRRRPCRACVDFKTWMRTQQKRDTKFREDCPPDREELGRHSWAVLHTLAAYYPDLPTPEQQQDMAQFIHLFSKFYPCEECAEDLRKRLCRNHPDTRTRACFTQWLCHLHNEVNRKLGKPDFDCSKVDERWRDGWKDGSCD

## Cc1ccc(NCc2nc3ccccc3n2C)cc1
[1]
  EC50: > 67.5 µM (inactive)
[2]
  IC50: > 67.5 µM (inactive)

## COC(=O)c1ccccc1NC(=O)NCc1ccncc1
[1]
  EC50: > 67.5 µM (inactive)
[2]
  IC50: > 67.5 µM (inactive)

## O=C1c2ccccc2C(O)N1Cc1cccs1 (stereo not given)
[3]
  IC50: > 83.3 µM (inactive)
[4]
  IC50: > 109 µM (inactive)

## COc1ccc2c3c(n(C)c2c1)[C@H](CO)N(C(=O)Nc1ccc(F)cc1)CC31CCN(C(=O)c2ccc3c(c2)OCO3)CC1
[5]
  AC50: 0.75 µM (active)
[6]
  AC50: 57.7 µM (active)
Paired box protein Pax-8
  AC50: 6.51 µM (active)
[7]
  AC50: 22.5 µM (active)
[8]
  AC50: 1.2 µM (active)
[9]
  AC50: 1.79 µM (active)
[10]
  AC50: > 100 µM (inactive)
[11]
  AC50: 4.33 µM (active)
[12]
  AC50: 28.6 µM (active)
[13]
  AC50: 0.892 µM (active)

## Cc1ccccc1-c1ccc2c(c1)O[C@H](CN(C)C(=O)Nc1ccc(C(F)(F)F)cc1)[C@H](C)CN([C@H](C)CO)S2(=O)=O
Paired box protein Pax-8
  AC50: 9.06 µM (active)
[7]
  AC50: 14.3 µM (active)
[11]
  AC50: > 70 µM (inactive)

## CO[C@H]1CN(C)C(=O)c2ccc(NC(=O)C3CC3)cc2OC[C@H](C)N(Cc2cc(F)ccc2F)C[C@@H]1C
[14]
  AC50: 59.9 µM (active)
[15]
  AC50: 0.668 µM (active)
[16]
  AC50: 0.851 µM (active)
[17]
  AC50: 1.5 µM (active)

## CC(C)Nc1nc(NC(C)C)nc(N(C#N)CCOc2ccc(Cl)cc2Cl)n1
[18]
  IC50: > 69.5 µM (inactive)
[19]
  EC50: > 60 µM (not active)
[20]
  IC50: 13.5 µM (inactive)
[21]
  EC50: 1.4 µM (active)

## CN(C)S(=O)(=O)c1cccc(NC(=O)c2cc(-c3cccs3)nn2-c2cccc(Cl)c2)c1
[18]
  IC50: > 69.5 µM (inactive)
[20]
  IC50: > 69.5 µM (inactive)

## c1ccc(-c2n[nH]c3c2CCC3)cc1
[22]
  IC50: 50.9 µM (not active)

## CC(=O)Oc1ccc(C(=O)Nc2cccc(C(=O)c3ccc(C)c(C)c3)c2)cc1
[18]
  IC50: > 69.5 µM (inactive)
[20]
  IC50: > 69.5 µM (inactive)

## CCc1ccc(CN(C)Cc2nc(COc3ccccc3)no2)nc1
[3]
  IC50: > 83.3 µM (inactive)
[4]
  IC50: > 109 µM (inactive)

## COc1ccc2nc(NC(=O)Cc3ccc(OC)c(S(=O)(=O)N4CCOCC4)c3)sc2c1
[22]
  IC50: 28.1 µM (not active)

## CC(=O)Nc1ccc(S(=O)(=O)Nc2ccc(N3CCCCC3)cc2)cc1
[23]
  AC50: 2.07 µM (active)
INS1
  AC50: 3.64 µM (active)
[14]
  AC50: 23.4 µM (active)
[15]
  AC50: 1.18 µM (active)
[24]
  AC50: 22.6 µM (active)
[16]
  AC50: 10.4 µM (active)
[17]
  AC50: 17.8 µM (active)
[25]
  CC50: 27.3 µM (active)

## O=C(NNC(=O)c1cc(-c2ccc(Cl)cc2Cl)nc2ccccc12)Nc1ccccc1
[26]
  IC50: 42.2 µM (inactive)
Streptococcus
  EC50: 8.55 µM (active)
[27]
  IC50: 2.74 µM (active)
Streptokinase A
  EC50: 20.4 µM (active)
[28]
  CC50: 16.9 µM (active)
[29]
  IC50: 1.28 µM (active)
[30]
  EC50: 5.3 µM (active)
